Series [1] has as its system Toxoplasma gondii. As to the kind of experiment: Antiparasitic activity against Toxoplasma gondii tachyzoites infected in human HeLa cells. It counts as functional, organism-based.
The test system of series [2] is HeLa. As to the kind of experiment: Antiproliferative activity against human HeLa cells assessed as inhibition of cell growth incubated for 72 hrs by MTT assay. It counts as functional, cell-based. (In general: Tetrazolium dyes change colour on reduction, which living cells bring about.)
Series [3] has as its system HepG2. The experiment in a line: Cytotoxicity against human HepG2 cells by MTT assay. It counts as functional, cell-based.
Series [4] addresses Tyrosine-protein phosphatase non-receptor type 1 (Homo sapiens, UniProt P18031). The experiment in a line: Inhibition of Protein tyrosine phosphatase 1B (unknown origin).
For series [5], the system named is HeLa. As to the kind of experiment: Cytotoxicity against human HeLa cells assessed as reduction in cell viability incubated for 48 hrs by MTT assay. It counts as functional, cell-based.
For series [6], the system named is Caco-2. As to the kind of experiment: Antiproliferative activity against human Caco-2 cells incubated for 96 hrs by MTT assay. It counts as functional, cell-based. As to conditions: Caco-2, 96 h.
In series [7] the test system is PC-3. As to the kind of experiment: Antiproliferative activity against human PC-3 cells assessed as reduction in cell growth measured after 24 hrs by MTT assay. It counts as functional, cell-based. As to conditions: PC-3, 24 h.
In series [8] the test system is Staphylococcus aureus. As to the kind of experiment: Antibacterial activity against Staphylococcus aureus ATCC 29213 assessed as reduction in microbial growth. It counts as functional.
For series [9], the system named is Enterococcus faecalis. As to the kind of experiment: Antibacterial activity against Enterococcus faecalis assessed as reduction in bacterial growth. It counts as functional.
Series [10] deals with Acinetobacter baumannii. As to the kind of experiment: Antibacterial activity against Acinetobacter baumannii assessed as reduction in bacterial growth by broth microdilution method. It counts as functional.
Series [11] concerns Escherichia coli. As to the kind of experiment: Antibacterial activity against Escherichia coli assessed as reduction in bacterial growth by broth microdilution method. It counts as functional.
The subject of series [12] is Staphylococcus aureus. The experiment in a line: Antibacterial activity against Staphylococcus aureus […] assessed as reduction in microbial growth. It counts as functional.
Series [13] deals with Staphylococcus aureus. As to the kind of experiment: Antibacterial activity against methicillin-resistant Staphylococcus aureus assessed as reduction in microbial growth. It counts as functional.
Series [14] concerns Leishmania donovani. As to the kind of experiment: Antileishmanial activity against Leishmania donovani assessed as parasite growth inhibition. It counts as functional, organism-based.
Series [15] in a line: Antioxidant activity assessed as DPPH radical scavenging activity. It counts as functional. For orientation: DPPH is a stable violet radical that fades when it is reduced.
For series [16], the system named is MDA-MB-453. As to the kind of experiment: Antiproliferative activity against human MDA-MB-453 cells assessed as inhibition of cell growth incubated for 48 hrs by MTT assay. It counts as functional, cell-based. As to conditions: MDA-MB-453, 48 h.
Series [17] has as its system MCF7. The experiment in a line: Antiproliferative activity against human MCF7 cells assessed as inhibition of cell growth by CCK8 assay. It counts as functional, cell-based.
For series [18], the system named is MDA-MB-231. The experiment in a line: Antiproliferative activity against human MDA-MB-231 cells assessed as reduction in cell viability incubated for 48 hrs by MTT assay. As to conditions: MDA-MB-231, 48 h. It counts as functional, cell-based.
Series [19] is described as follows: Cytotoxicity against mouse RAW264.7 cells assessed as reduction in cell viability incubated for 48 hrs by MTT assay. It counts as toxicity, cell-based.
In series [20] the test system is Arthrodermataceae. As to the kind of experiment: Antibacterial activity against Arthrodermataceae. It counts as functional.
In series [21] the test system is Nannizzia gypsea. The experiment in a line: Antifungal activity against Microsporum gypseum assessed as fungal growth inhibition. It counts as functional.
For series [22], the system named is Trichophyton mentagrophytes. As to the kind of experiment: Antifungal activity against Trichophyton mentagrophytes assessed as inhibition of microbial growth. It counts as functional.
Series [23] concerns Trichophyton mentagrophytes. As to the kind of experiment: Antifungal activity against Trichophyton mentagrophytes assessed as inhibition of fungal growth incubated for 48 hrs by serial plate dilution method. It counts as functional.
Series [24] relates to MCF7. The experiment in a line: Cytotoxicity against human MCF7 cells assessed as reduction in cell viability by MTS assay. It counts as functional, cell-based.
The subject of series [25] is HCT-116. As to the kind of experiment: Cytotoxicity against human HCT-116 cells assessed as reduction in cell viability by MTS assay. It counts as functional, cell-based.
Series [26] deals with HepG2. As to the kind of experiment: Antiproliferative activity against human HepG2 cells assessed as reduction in cell viability incubated for 48 hrs by MTT assay. It counts as functional, cell-based. Conditions: HepG2, 48 h.
Series [27] concerns HeLa. As to the kind of experiment: Cytotoxicity against human HeLa cells assessed as cell growth inhibition incubated for 24 hrs by MTT assay. It counts as functional, cell-based.

Experimental findings from ChEMBL document CHEMBL5356986, “Research status of indole-modified natural products” (RSC Med Chem, 2023) are described below.

Converted amounts (≈) assume the structure as drawn.

Chain of Tyrosine-protein phosphatase non-receptor type 1 (P18031 whole entry): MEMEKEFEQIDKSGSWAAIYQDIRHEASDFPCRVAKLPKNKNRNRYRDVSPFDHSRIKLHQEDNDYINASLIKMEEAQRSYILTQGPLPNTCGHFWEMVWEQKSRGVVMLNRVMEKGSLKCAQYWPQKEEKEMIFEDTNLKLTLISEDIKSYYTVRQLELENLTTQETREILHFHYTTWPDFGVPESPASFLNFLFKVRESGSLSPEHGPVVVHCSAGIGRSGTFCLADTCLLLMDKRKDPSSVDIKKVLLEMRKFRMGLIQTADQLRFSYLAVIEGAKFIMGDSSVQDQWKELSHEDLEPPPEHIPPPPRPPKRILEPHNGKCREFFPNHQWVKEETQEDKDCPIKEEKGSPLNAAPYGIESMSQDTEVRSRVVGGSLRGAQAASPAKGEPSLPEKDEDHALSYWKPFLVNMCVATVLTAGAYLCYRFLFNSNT

In general, IC50 refers to the point on the concentration scale where inhibition reaches its midpoint. With `COc1cc(C(=O)/C=C/c2c[nH]c3ccccc23)cc([Se]C)c1OC`, the IC50 amounted to 0.023 µM in [1] (Toxoplasma gondii, HeLa) and 0.059 µM in series [2].

In turn, SPIRAMYCIN yielded an IC50 in series [1] of 262 µM.

The compound `CC(=O)Oc1ccc(C(=O)/C=C/c2ccc3c(ccn3C)c2)c2c1C=CC(C)(C)O2` came in with an IC50 in series [3] of 0.22 µM.

As to `CC1(C)c2[nH]c3ccc(C(F)(F)F)cc3c2C[C@]2(C)[C@H]3C(=O)C=C4[C@@H]5C[C@@](C)(C(=O)O)CC[C@]5(C)CC[C@@]4(C)[C@]3(C)CC[C@@H]12`, the IC50 in series [4] was found to be 4.3 µM.

For the compound `COc1cc(/C=C/C(=O)CC(=O)/C=C/c2ccc(O)c(OC)c2)ccc1O` [CURCUMIN], the IC50 is 25.4 µM in series [5], 47.6 µM in series [6] and 12.2 µM in series [7].

As a reminder, the MIC is the lowest concentration found to suppress growth. As for `Cc1cc(=O)oc2cc(/N=C3/S/C(=C\c4c[nH]c5ccccc45)C(=O)N3CCO)ccc12`, the MIC stood at 0.25 µg/mL in series [8]; 0.25 µg/mL (≈ 0.561 µM) in [9]; 0.25 µg/mL (≈ 0.561 µM) in series [10]; 0.25 µg/mL (≈ 0.561 µM) in series [11]; 0.25 µg/mL in series [12]; 0.25 µg/mL in [13].

For the compound `COc1ccc(C(=O)/C=C/c2ccc3c(ccn3C)c2)c2c1C=CC(C)(C)O2`, inhibition in series [3] was half-maximal at 0.82 µM (IC50).

For `O=C(CCC(c1ccccc1)c1c[nH]c2ccccc12)c1c(O)c2ccccc2oc1=O` (centres undefined), the IC50 was found to be 95.5 µg/mL (≈ 226 µM) in series [14] and 12.4 µM in series [15].

As to `C[C@]12CC[C@H](OC(=O)[C@H](N)c3c[nH]c4ccccc34)C[C@H]1CC[C@@H]1[C@@H]2[C@H](N)C(=O)[C@]2(C)[C@@H](c3ccc(=O)oc3)CC[C@]12O`, the figures for the IC50 in series [16], in series [17] and in series [18] were 0.0106 µM, 11.6 µM and 0.027 µM, respectively.

With `C=C(C)[C@@H]1CC[C@]2(C)CC[C@]3(C)[C@H](CC[C@@H]4[C@@]5(C)Cc6c([nH]c7cc(I)ccc67)C(C)(C)[C@@H]5CC[C@]43C)[C@@H]12`, the IC50 at 48 h in series [19] turned out to be 22.6 µM.

As for `COc1cc(/C=C/C(=O)/C=C/c2c[nH]c3ccccc23)ccc1O`, in series [6], the IC50 was found to be 8 µM.

For `COc1ccc(/C=C/C(=O)c2c[nH]c3ccccc23)cc1`, the MIC in [20] came to 8 µg/mL (≈ 28.8 µM); in series [21] it was 4 µg/mL (≈ 14.4 µM); in [22], 8 µg/mL.

As for `COc1cc(/C=C/C(=O)c2c[nH]c3ccccc23)cc(Br)c1OC`, the figures for the minimal inhibitory concentration (MIC) in [23], in [21] and in series [22] were 32 µg/mL (≈ 82.8 µM), 1 µg/mL (≈ 2.59 µM) and 16 µg/mL, respectively.

For the compound `C=C1CC[C@H]2[C@@](C)(Cc3c([nH]c4ccccc34)[C@@]2(C)COC(C)=O)[C@@H]1C/C=C1\C=COC1=O`, the half-inhibitory concentration (IC50) was found to be 1.85 µM in series [24] and 1.22 µM in [25].

As to `CC(C)[C@@H](C)/C=C/[C@@H](C)[C@H]1CC[C@@H]2[C@]1(C)CC[C@H]1[C@]23C=C[C@]2(C[C@@H](O)CC[C@]12C)OO3` [ERGOSTEROL PEROXIDE], the results for the IC50 in series [26], in [17] and in [27] were 23.4 µM, 18 µM and 19.5 µM, respectively.

Turning to `CCn1cc(C(=O)O)c(=O)c2cc(F)c(N3CCNCC3)cc21` [NORFLOXACIN], the MIC in series [8] stood at 2 µg/mL; in series [9] it was 4 µg/mL (≈ 12.5 µM); in series [10], 2 µg/mL (≈ 6.26 µM); in series [11], 2 µg/mL (≈ 6.26 µM); in series [12] it was 4 µg/mL; in series [13], 4 µg/mL.
